#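 Tested at 5 concentrations; 48 h exposure; 96-well plates; endpoints linearly interpolated, else capped at highest concentration. TGI marks complete inhibition of growth.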
# Tests used:
# Assay in all cases: inhibition of tumour cell growth, NCI panel, 48 h
# EKVX NSCLC = test system: EKVX NSCLC
# NCI-H460 lung = test system: NCI-H460 lung
# SK-MEL-2 melanoma = test system: SK-MEL-2 melanoma
# NCI-H226 lung = test system: NCI-H226 lung
# CCRF-CEM leukemia = test system: CCRF-CEM leukemia
# HOP-62 NSCLC = test system: HOP-62 NSCLC
# KM20L2 colon = test system: KM20L2 colon
# HOP-92 NSCLC = test system: HOP-92 NSCLC
# COLO 205 colon = test system: COLO 205 colon
# HT29 colon = test system: HT29 colon
# OVCAR-4 ovarian = test system: OVCAR-4 ovarian
# ACHN renal = test system: ACHN renal
# HCT-116 colon = test system: HCT-116 colon
# UACC-257 melanoma = test system: UACC-257 melanoma
# M14 melanoma = test system: M14 melanoma
# SR leukemia = test system: SR leukemia
# IGROV1 ovarian = test system: IGROV1 ovarian
# SN12C renal = test system: SN12C renal
# UO-31 renal = test system: UO-31 renal
# SF-295 CNS = test system: SF-295 CNS
# UACC-62 melanoma = test system: UACC-62 melanoma
# OVCAR-3 ovarian = test system: OVCAR-3 ovarian
# HL-60(TB) leukemia = test system: HL-60(TB) leukemia
# SW-620 colon = test system: SW-620 colon
# OVCAR-5 ovarian = test system: OVCAR-5 ovarian
# KM12 colon = test system: KM12 colon
# LXFL 529 NSCLC = test system: LXFL 529 NSCLC
# SNB-19 CNS = test system: SNB-19 CNS
# SK-MEL-5 melanoma = test system: SK-MEL-5 melanoma
# HCC-2998 colon = test system: HCC-2998 colon
# K-562 leukemia = test system: K-562 leukemia
# RPMI-8226 leukemia = test system: RPMI-8226 leukemia
# U251 CNS = test system: U251 CNS
# M19-MEL melanoma = test system: M19-MEL melanoma
# A549 NSCLC = test system: A549 NSCLC
# SF-268 CNS = test system: SF-268 CNS
# LOX IMVI melanoma = test system: LOX IMVI melanoma
# NCI-H23 lung = test system: NCI-H23 lung
# TK-10 renal = test system: TK-10 renal
# SF-539 CNS = test system: SF-539 CNS
# NCI-H522 lung = test system: NCI-H522 lung
# MOLT-4 leukemia = test system: MOLT-4 leukemia
# SNB-78 CNS = test system: SNB-78 CNS
# MALME-3M melanoma = test system: MALME-3M melanoma
# XF 498 CNS = test system: XF 498 CNS
# SK-OV-3 ovarian = test system: SK-OV-3 ovarian
# 786-0 renal = test system: 786-0 renal
# HCT-15 colon = test system: HCT-15 colon
# OVCAR-8 ovarian = test system: OVCAR-8 ovarian
# SK-MEL-28 melanoma = test system: SK-MEL-28 melanoma
# DLD-1 colon = test system: DLD-1 colon
# CAKI-1 renal = test system: CAKI-1 renal
# HOP-18 NSCLC = test system: HOP-18 NSCLC
# RXF 393 renal = test system: RXF 393 renal
# A498 renal = test system: A498 renal
# DMS 114 small cell lung = test system: DMS 114 small cell lung
# DMS 273 small cell lung = test system: DMS 273 small cell lung
# SNB-75 CNS = test system: SNB-75 CNS
# MDA-N = test system: MDA-N
# MDA-MB-231 breast = test system: MDA-MB-231 breast
# NCI/ADR-RES ovarian = test system: NCI/ADR-RES ovarian
# MDA-MB-435 = test system: MDA-MB-435
# MCF7 breast = test system: MCF7 breast
# PC-3 prostate = test system: PC-3 prostate
# BT-549 breast = test system: BT-549 breast
# HS 578T breast = test system: HS 578T breast
# DU-145 prostate = test system: DU-145 prostate
# T-47D breast = test system: T-47D breast
structure (smiles),measurement,setting,value
CC(=O)NNc1nc(C)c(C(=O)NNC(=O)C(=O)Nc2ccc(Cl)cc2)s1,TGI,EKVX NSCLC,> 100 µM
same,TGI,NCI-H460 lung,> 100 µM
same,TGI,SK-MEL-2 melanoma,> 100 µM
same,TGI,NCI-H226 lung,> 100 µM
same,TGI,CCRF-CEM leukemia,> 100 µM
same,TGI,HOP-62 NSCLC,> 100 µM
same,TGI,KM20L2 colon,> 100 µM
same,TGI,HOP-92 NSCLC,> 100 µM
same,TGI,COLO 205 colon,> 100 µM
same,TGI,HT29 colon,> 100 µM
same,TGI,OVCAR-4 ovarian,> 100 µM
same,TGI,ACHN renal,> 100 µM
same,TGI,HCT-116 colon,> 100 µM
same,TGI,UACC-257 melanoma,> 100 µM
same,TGI,M14 melanoma,> 100 µM
same,TGI,SR leukemia,> 100 µM
same,TGI,IGROV1 ovarian,> 100 µM
same,TGI,SN12C renal,> 100 µM
same,TGI,UO-31 renal,> 100 µM
same,TGI,SF-295 CNS,> 100 µM
same,TGI,UACC-62 melanoma,> 100 µM
same,TGI,OVCAR-3 ovarian,> 100 µM
same,TGI,HL-60(TB) leukemia,> 100 µM
same,TGI,SW-620 colon,> 100 µM
same,TGI,OVCAR-5 ovarian,> 100 µM
same,TGI,KM12 colon,> 100 µM
same,TGI,LXFL 529 NSCLC,> 100 µM
same,TGI,SNB-19 CNS,> 100 µM
same,TGI,SK-MEL-5 melanoma,> 100 µM
same,TGI,HCC-2998 colon,> 100 µM
same,TGI,K-562 leukemia,> 100 µM
same,TGI,RPMI-8226 leukemia,> 100 µM
same,TGI,U251 CNS,> 100 µM
same,TGI,M19-MEL melanoma,> 100 µM
same,TGI,A549 NSCLC,> 100 µM
same,TGI,SF-268 CNS,> 100 µM
same,TGI,LOX IMVI melanoma,> 100 µM
same,TGI,NCI-H23 lung,> 100 µM
same,TGI,TK-10 renal,> 100 µM
same,TGI,SF-539 CNS,> 100 µM
same,TGI,NCI-H522 lung,> 100 µM
same,TGI,MOLT-4 leukemia,> 100 µM
same,TGI,SNB-78 CNS,> 100 µM
same,TGI,MALME-3M melanoma,> 100 µM
same,TGI,XF 498 CNS,> 100 µM
same,TGI,SK-OV-3 ovarian,> 100 µM
same,TGI,786-0 renal,> 100 µM
same,TGI,HCT-15 colon,> 100 µM
same,TGI,OVCAR-8 ovarian,> 100 µM
same,TGI,SK-MEL-28 melanoma,> 100 µM
CCN(CC)CCC(=O)Nc1ccc2c(c1)C(=O)c1ccc(NC(=O)CCN(CC)CC)cc1C2=O,TGI,EKVX NSCLC,15.1 µM
same,TGI,NCI-H460 lung,2.74 µM
same,TGI,SK-MEL-2 melanoma,19 µM
same,TGI,DLD-1 colon,10.2 µM
same,TGI,NCI-H226 lung,7.8 µM
same,TGI,CCRF-CEM leukemia,18.5 µM
same,TGI,CAKI-1 renal,14.7 µM
same,TGI,HOP-62 NSCLC,17.6 µM
same,TGI,KM20L2 colon,28 µM
same,TGI,HOP-92 NSCLC,30 µM
same,TGI,HOP-18 NSCLC,18.4 µM
same,TGI,COLO 205 colon,14.4 µM
same,TGI,HT29 colon,12.5 µM
same,TGI,RXF 393 renal,9.27 µM
same,TGI,OVCAR-4 ovarian,18.9 µM
same,TGI,ACHN renal,16.3 µM
same,TGI,HCT-116 colon,10.1 µM
same,TGI,UACC-257 melanoma,29.7 µM
same,TGI,M14 melanoma,27.1 µM
same,TGI,SR leukemia,14.5 µM
same,TGI,IGROV1 ovarian,12 µM
same,TGI,A498 renal,17.8 µM
same,TGI,SN12C renal,13.4 µM
same,TGI,UO-31 renal,> 100 µM
same,TGI,SF-295 CNS,24 µM
same,TGI,UACC-62 melanoma,22.3 µM
same,TGI,DMS 114 small cell lung,13 µM
same,TGI,HL-60(TB) leukemia,16.7 µM
same,TGI,SW-620 colon,6.93 µM
same,TGI,OVCAR-5 ovarian,25.1 µM
same,TGI,KM12 colon,4.57 µM
same,TGI,LXFL 529 NSCLC,12 µM
same,TGI,SNB-19 CNS,18.6 µM
same,TGI,SK-MEL-5 melanoma,19.8 µM
same,TGI,HCC-2998 colon,> 100 µM
same,TGI,K-562 leukemia,14.8 µM
same,TGI,RPMI-8226 leukemia,19.9 µM
same,TGI,U251 CNS,21.2 µM
same,TGI,M19-MEL melanoma,> 100 µM
same,TGI,A549 NSCLC,20.6 µM
same,TGI,SF-268 CNS,18.9 µM
same,TGI,LOX IMVI melanoma,6.19 µM
same,TGI,NCI-H23 lung,23.2 µM
same,TGI,TK-10 renal,18.9 µM
same,TGI,DMS 273 small cell lung,3.82 µM
same,TGI,SF-539 CNS,15.3 µM
same,TGI,NCI-H522 lung,23.5 µM
same,TGI,MOLT-4 leukemia,12.2 µM
same,TGI,SNB-75 CNS,31.9 µM
same,TGI,SNB-78 CNS,48.3 µM
same,TGI,SK-OV-3 ovarian,21.7 µM
same,TGI,786-0 renal,8.42 µM
same,TGI,HCT-15 colon,14.8 µM
same,TGI,OVCAR-8 ovarian,18 µM
same,TGI,SK-MEL-28 melanoma,24.6 µM
C=C1c2nc3ccccc3n2C=C(c2ccccc2)N1c1ccc([N+](=O)[O-])cc1,TGI,EKVX NSCLC,24.8 µM
same,TGI,NCI-H460 lung,6.6 µM
same,TGI,SK-MEL-2 melanoma,56.3 µM
same,TGI,NCI-H226 lung,27.6 µM
same,TGI,CCRF-CEM leukemia,> 81.3 µM
same,TGI,CAKI-1 renal,24 µM
same,TGI,HOP-62 NSCLC,> 52.6 µM
same,TGI,HOP-92 NSCLC,21.9 µM
same,TGI,COLO 205 colon,48.4 µM
same,TGI,MDA-N,43.5 µM
same,TGI,MDA-MB-231 breast,14.2 µM
same,TGI,HT29 colon,> 61.1 µM
same,TGI,RXF 393 renal,16 µM
same,TGI,OVCAR-4 ovarian,2.29 µM
same,TGI,ACHN renal,12.8 µM
same,TGI,HCT-116 colon,35.2 µM
same,TGI,UACC-257 melanoma,63.4 µM
same,TGI,M14 melanoma,> 60.4 µM
same,TGI,SR leukemia,> 70 µM
same,TGI,IGROV1 ovarian,27 µM
same,TGI,A498 renal,42 µM
same,TGI,SN12C renal,> 95.2 µM
same,TGI,UO-31 renal,16 µM
same,TGI,NCI/ADR-RES ovarian,44.5 µM
same,TGI,SF-295 CNS,18.5 µM
same,TGI,MDA-MB-435,32.6 µM
same,TGI,UACC-62 melanoma,32.3 µM
same,TGI,OVCAR-3 ovarian,60.2 µM
same,TGI,MCF7 breast,> 37.9 µM
same,TGI,HL-60(TB) leukemia,> 88.1 µM
same,TGI,SW-620 colon,59 µM
same,TGI,OVCAR-5 ovarian,40.7 µM
same,TGI,KM12 colon,13.8 µM
same,TGI,PC-3 prostate,68.2 µM
same,TGI,BT-549 breast,46.4 µM
same,TGI,SNB-19 CNS,24.4 µM
same,TGI,SK-MEL-5 melanoma,40.8 µM
same,TGI,HCC-2998 colon,> 23.2 µM
same,TGI,K-562 leukemia,58.2 µM
same,TGI,RPMI-8226 leukemia,> 55.7 µM
same,TGI,U251 CNS,22.6 µM
same,TGI,A549 NSCLC,13.5 µM
same,TGI,SF-268 CNS,49.1 µM
same,TGI,LOX IMVI melanoma,> 100 µM
same,TGI,HS 578T breast,30.3 µM
same,TGI,NCI-H23 lung,38.5 µM
same,TGI,TK-10 renal,22.1 µM
same,TGI,SF-539 CNS,3.04 µM
same,TGI,NCI-H522 lung,24.4 µM
same,TGI,MOLT-4 leukemia,> 100 µM
same,TGI,SNB-75 CNS,16.4 µM
same,TGI,MALME-3M melanoma,25.9 µM
same,TGI,SK-OV-3 ovarian,15.3 µM
same,TGI,DU-145 prostate,> 74.7 µM
same,TGI,786-0 renal,4.13 µM
same,TGI,HCT-15 colon,32.1 µM
same,TGI,OVCAR-8 ovarian,43.4 µM
same,TGI,SK-MEL-28 melanoma,> 65.2 µM
same,TGI,T-47D breast,> 53.5 µM

# — PubChem BioAssay (NCI)
